Assay results from PMC11191317, “PNSC928, a plant-derived compound, specifically disrupts CtBP2-p300 interaction and reduces inflammation in mice with acute respiratory distress syndrome” (Biology Direct, 2024).

What was measured:
[1] = biological target: T1, CtBP2-p300^BRD interaction (Mus musculus, UniProt B2RWS6+P56546); experiment: AlphaScreen of GST-p300^BRD and His-CtBP2 interaction; type: binding
T1 construct: R1 (1-1000 amino acids, aa), R2 (1001–1201 aa), R3 (1202–1810 aa); made in house; host or cells: E. coli BL21
T1 sequence (B2RWS6 1001-1201 limits assumed): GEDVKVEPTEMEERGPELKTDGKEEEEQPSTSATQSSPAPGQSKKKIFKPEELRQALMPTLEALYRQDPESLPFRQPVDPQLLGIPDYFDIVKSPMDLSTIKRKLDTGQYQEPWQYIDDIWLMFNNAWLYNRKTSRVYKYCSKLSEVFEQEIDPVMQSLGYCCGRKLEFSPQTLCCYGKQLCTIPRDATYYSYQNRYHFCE
T1 sequence (P56546 whole entry, the tested form may be a part): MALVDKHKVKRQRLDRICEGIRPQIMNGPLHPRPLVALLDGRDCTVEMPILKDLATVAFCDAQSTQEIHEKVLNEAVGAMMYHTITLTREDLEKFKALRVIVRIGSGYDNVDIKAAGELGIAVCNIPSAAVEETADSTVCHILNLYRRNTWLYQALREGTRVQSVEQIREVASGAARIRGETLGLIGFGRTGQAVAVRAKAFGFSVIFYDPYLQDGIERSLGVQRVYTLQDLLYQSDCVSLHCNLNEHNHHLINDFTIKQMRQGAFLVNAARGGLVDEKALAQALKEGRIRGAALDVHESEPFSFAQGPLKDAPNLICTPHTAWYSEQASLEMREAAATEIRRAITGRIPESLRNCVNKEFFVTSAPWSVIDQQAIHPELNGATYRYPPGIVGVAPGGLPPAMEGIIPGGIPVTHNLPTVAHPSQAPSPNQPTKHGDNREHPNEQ
Description: Plasmids pGEX-6P-1-p300^BRD and pET-28a-CtBP2 (Table S2) were transformed into BL21 competent cells. Upon 1 mM isopropyl β-d-1-thiogalactopyranoside (IPTG) induction, GST-p300BRD and His-CtBP2 proteins were isolated via Glutathione Agarose Beads (Thermo Fisher; #16,100) and Ni-NTA Agarose (Thermo Fisher; #R90115), respectively. A comprehensive small molecule library of 4313 compounds derived from various botanical sources, including Lonicera japonica, Forsythia suspense, Houttuynia cordata, Coptis chinensis, Phellodendron, Pulsatilla chinensis, Lygodium japonicum, Plantago asiatica, and Portulaca olerace, was analyzed through mass spectrometry. […] Post addition of 5 µM from each botanical molecule and a 2-hour incubation at 25 °C, the resultant AlphaScreen signals from 96-well plates (PerkinElmer, #6,008,350) were deciphered with an Envision Multilabel Reader (PerkinElmer, #2105-0010).
To probe this interaction, we established an AlphaScreen system that utilized GST-p300^BRD and His-CtBP2, binding to donor and acceptor beads, respectively (Fig. 4C). […] In vitro assays assessed the effects of PNSC928 on the CtBP2-p300^BRD interaction. […] Furthermore, we assessed the impact of combined LPS and PNSC928 treatment on the expression of key molecules in the NF-κB signaling pathway.

NF-κB signaling pathway = experiment: Immunoblots of NF-κB signaling pathway molecules in LPS-treated MPAEpiC cells; type: cell-based, mouse; conditions: LPS 200 ng/mL + PNSC928 0, 23.6, and 47.2 µM, 6 h
Description: For LPS treatment, different knockdown (KD) cell lines—Control^KD, CtBP2^KD, p300^KD, and p65^KD, all derived from MPAEpiC—were seeded in 12-well plates and cultured at 37 °C until reaching 80% confluence. The cells were then treated with 200 ng/mL of LPS for 6 h, washed three times with PBS, and subjected to the required experiments. For experiments involving inhibitors of CtBP2, p300, and NF-κB, as well as the compound PNSC928, MPAEpiC, RAW264.7, FL83B, TKPTS, and HL-1 cells were seeded in 12-well plates and cultured at 37 °C to reach 80% confluence. Cells were then cotreated with 200 ng/mL LPS along with varying concentrations of the following chemicals: MTOB (0, 5, 10, or 20 mM), NSC95397 (0, 10, 20, or 40 µM), C646 (0, 3, 6, or 12 µM), A-485 (0, 5, 10, or 20 nM), TPCA1 (0, 150, 300, or 600 nM), BOT64 (0, 1, 2, or 4 µM), or PNSC928 (0, 11.8, 23.6, or 47.2 µM). After 6 h of treatment, cells were washed three times with PBS before proceeding with further experiments.
Cellular and mouse lung tissue lysates were prepared using the RIPA buffer (Thermo Fisher; #PI89900) supplemented with 1 × complete protease inhibitor cocktail (Thermo Fisher; #87,785). Following a 10-minute centrifugation at 13,000 g, proteins (50 µg) from the cleared lysate were resolved via 10% SDS-PAGE. These separated proteins were electroblotted onto PVDF membranes (Thermo Fisher; #88,585). […]

**Q.** With `CC(=CCCC1=CCC(C2COC(=O)C2)OC1O)CCC1=C(C)CCCC1(C)C` (stereo not drawn) [PNSC928] as the compound, how does the Alpha signal ([1]; high-throughput screening, 5 µM compound, signal reduced from 17,500) read?
**A.** The Alpha signal was 489.

**Q.** And the IC50 ([1]; read-out: IC50 disrupting CtBP2-p300^BRD interaction)?
**A.** The IC50 was 23.6 ± 3.1 µM.

**Q.** And the “Effect on LPS-induced pIKKα, pIκBα, IκBα levels and nuclear translocation of p65 and p50” value (NF-κB signaling pathway)?
**A.** The value was “did not alter the effects of LPS”.
